Laboratory results reported in US10058550B2, “Methods of treating heart failure” (priority 2015, dated 2018).

Target: human APJ receptor (Homo sapiens (Human), UniProt P35414)
Assay: biochemical
Type: biochemical
Conditions: read-out: Activity hAPJ SPA EC50 IP
Summary of the method: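 Agonist-stimulated [35S]GTPγS (0.2 nM) binding was read by SPA after 90 min at room temperature. Buffer: 20 mM HEPES pH 7.5 with 5 mM MgCl2, 200 mM NaCl, 3 μM GDP, 0.1% BSA; membranes were from a stable human APJ CHO line. EC50 values are averages of independent runs, fitted by non-linear regression.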

human APJ receptor, sequence (P35414 whole entry): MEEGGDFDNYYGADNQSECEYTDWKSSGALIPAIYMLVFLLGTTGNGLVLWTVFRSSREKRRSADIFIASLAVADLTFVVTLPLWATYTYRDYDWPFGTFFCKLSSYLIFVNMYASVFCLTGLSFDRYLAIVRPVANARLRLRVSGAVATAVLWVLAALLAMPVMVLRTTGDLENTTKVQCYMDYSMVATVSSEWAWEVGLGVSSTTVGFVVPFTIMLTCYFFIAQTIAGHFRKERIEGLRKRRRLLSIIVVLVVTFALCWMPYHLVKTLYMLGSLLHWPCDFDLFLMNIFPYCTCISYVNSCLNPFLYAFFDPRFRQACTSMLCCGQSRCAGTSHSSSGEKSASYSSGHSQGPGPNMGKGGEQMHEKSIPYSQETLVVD

SMILES	EC50
COc1cccc(-c2nnc(NS(=O)(=O)[C@@H](C)[C@H](OC)c3ncc(C)cn3)n2-c2c(O)ncnc2OC)n1 (single isomer, unassigned) [Example 740.0, (1R,2S,M)-N-(4-(4-hydroxy-6-methoxypyrimidin-5-yl)-5-(6-methoxypyridin-2-yl)-4H-1,2,4-triazol-3-yl)-1-methoxy-1-(5-methylpyrimidin-2-yl)propane-2-sulfonamide or (1R,2S,P)-N-(4-(4-hydroxy-6-methoxypyrimidin-5-yl)-5-(6-methoxypyridin-2-yl)-4H-1,2,4-triazol-3-yl)-1-methoxy-1-(5-methylpyrimidin-2-yl)propane-2-sulfonamide]	56 nM
C[C@H](c1ccc(Cl)cn1)[C@H](C)S(=O)(=O)Nc1nnc(-c2cccnc2)n1-c1c(O)nc[nH]c1=O [Example 810.0, (2S,3R)-3-(5-chloro-2-pyridinyl)-N-(4-(4-hydroxy-6-oxo-1,6-dihydro-5-pyrimidinyl)-5-(3-pyridinyl)-4H-1,2,4-triazol-3-yl)-2-butanesulfonamide]	770 nM
COc1cccc(OC)c1-n1c(NS(=O)(=O)[C@H](C)[C@@H](O)c2cnc(C)cn2)nnc1-c1cccnc1 [Example 614.0, (1S,2R)—N-(4-(2,6-dimethoxyphenyl)-5-(3-pyridinyl)-4H-1,2,4-triazol-3-yl)-1-hydroxy-1-(5-methyl-2-pyrazinyl)-2-propanesulfonamide]	1.7 nM
COc1cccc(-c2nnc(NS(=O)(=O)[C@@H](C)[C@H](C)c3ncc(Cl)cn3)n2-c2c(F)cccc2F)n1 [Example 786.0, (2S,3R)-3-(5-chloro-2-pyrimidinyl)-N-(4-(2,6-difluorophenyl)-5-(6-methoxy-2-pyridinyl)-4H-1,2,4-triazol-3-yl)-2-butanesulfonamide]	0.16 nM
COc1cccc(-c2nnc(NS(=O)(=O)[C@H](C)[C@@H](OC)c3ncc(C)cn3)n2-c2c(F)cccc2F)n1 [Example 792.0, (1S,2R)-N-(4-(2,6-difluorophenyl)-5-(6-methoxy-2-pyridinyl)-4H-1,2,4-triazol-3-yl)-1-methoxy-1-(5-methyl-2-pyrimidinyl)-2-propanesulfonamide]	51 nM
COc1cccc(OC)c1-n1c(NS(=O)(=O)[C@@H](C)[C@H](C)c2ncc(F)cn2)nnc1-c1cccc(OCC(O)(C(F)(F)F)C(F)(F)F)n1 [Example 194.0, (2S,3R)-N-(4-(2,6-dimethoxyphenyl)-5-(6-(3,3,3-trifluoro-2-hydroxy-2-(trifluoromethyl)propoxy)pyridin-2-yl)-4H-1,2,4-triazol-3-yl)-3-(5-fluoropyrimidin-2-yl)butane-2-sulfonamide]	36 nM
COc1cccc(OC)c1-n1c(NS(=O)(=O)[C@@H](C)[C@H](C)c2ncc(F)cn2)nnc1-c1cccc(C)n1 (mixture of isomers) [Example 452.0, (2S,3R)—N-(4-(2,6-dimethoxyphenyl)-5-(6-methyl-2-pyridinyl)-4H-1,2,4-triazol-3-yl)-3-(5-fluoro-2-pyrimidinyl)-2-butanesulfonamide and (2R,3S)—N-(4-(2,6-dimethoxyphenyl)-5-(6-methyl-2-pyridinyl)-4H-1,2,4-triazol-3-yl)-3-(5-fluoro-2-pyrimidinyl)-2-butanesulfonamide]	1 nM
COc1cccc(OC)c1-n1c(NS(=O)(=O)[C@H](C)[C@H](OC(C)C)c2ccc(Cl)cn2)nnc1-c1cncc(C)c1 (single isomer, unassigned) [Example 744.0, (1R,2R)-1-(5-chloropyridin-2-yl)-N-(4-(2,6-dimethoxyphenyl)-5-(5-methylpyridin-3-yl)-4H-1,2,4-triazol-3-yl)-1-isopropoxypropane-2-sulfonamide or (1S,2S)-1-(5-chloropyridin-2-yl)-N-(4-(2,6-dimethoxyphenyl)-5-(5-methylpyridin-3-yl)-4H-1,2,4-triazol-3-yl)-1-isopropoxypropane-2-sulfonamide]	26 nM
COc1cccc(-c2nnc(NS(=O)(=O)[C@H](C)C(=O)N3CCCC3)n2-c2c(OC)cccc2OC)n1 (mixture of isomers) [Example 83.0, (2R)-N-(4-(2,6-dimethoxyphenyl)-5-(6-methoxy-2-pyridinyl)-4H-1,2,4-triazol-3-yl)-1-oxo-1-(1-pyrrolidinyl)-2-propanesulfonamide and (2S)-N-(4-(2,6-dimethoxyphenyl)-5-(6-methoxy-2-pyridinyl)-4H-1,2,4-triazol-3-yl)-1-oxo-1-(1-pyrrolidinyl)-2-propanesulfonamide]	48 nM
COc1ncnc(OC)c1-n1c(NS(=O)(=O)[C@@H](C)[C@H](C)c2ncc(Cl)cn2)nnc1-c1cccnc1 [Example 709.0, (2S,3R)-3-(5-chloro-2-pyrimidinyl)-N-(4-(4,6-dimethoxy-5-pyrimidinyl)-5-(3-pyridinyl)-4H-1,2,4-triazol-3-yl)-2-butanesulfonamide]	0.71 nM
COc1cccc(OC)c1-n1c(NS(=O)(=O)[C@@H](C)[C@H](C)c2ncc(F)cn2)nnc1-c1cccc(=O)[nH]1 [Example 168.0, (2S,3R)-N-(4-(2,6-dimethoxyphenyl)-5-(6-oxo-1,6-dihydro-2-pyridinyl)-4H-1,2,4-triazol-3-yl)-3-(5-fluoro-2-pyrimidinyl)-2-butanesulfonamide]	110 nM
COc1cccc(-c2nnc(NS(=O)(=O)[C@@H](C)[C@H](O)c3cnc(C)cn3)n2-c2c(OC)cccc2OC)n1 (single isomer, unassigned) [Example 577.0, (1R,2S)—N-(4-(2,6-dimethoxyphenyl)-5-(6-methoxy-2-pyridinyl)-4H-1,2,4-triazol-3-yl)-1-hydroxy-1-(5-methyl-2-pyrazinyl)-2-propanesulfonamide or (1S,2R)—N-(4-(2,6-dimethoxyphenyl)-5-(6-methoxy-2-pyridinyl)-4H-1,2,4-triazol-3-yl)-1-hydroxy-1-(5-methyl-2-pyrazinyl)-2-propanesulfonamide]	0.24 nM
COc1cccc(-c2nnc(NS(=O)(=O)[C@@H](C)[C@H](OC)c3ncc(C)cn3)n2-c2cccc(Br)c2)n1 [Example 60.0, (1R,2S)-N-(4-(3-bromophenyl)-5-(6-methoxy-2-pyridinyl)-4H-1,2,4-triazol-3-yl)-1-methoxy-1-(5-methyl-2-pyrimidinyl)-2-propanesulfonamide]	12 nM
COc1cccc(OC)c1-n1c(NS(=O)(=O)[C@@H](C)[C@H](OC)c2ncc(Cl)cn2)nnc1-c1cccnc1 [Example 591.0, (1R,2S)-1-(5-chloro-2-pyrimidinyl)-N-(4-(2,6-dimethoxyphenyl)-5-(3-pyridinyl)-4H-1,2,4-triazol-3-yl)-1-methoxy-2-propanesulfonamide]	0.21 nM
CNc1cccc(-c2nnc(NS(=O)(=O)[C@@H](C)[C@H](C)c3ncc(F)cn3)n2-c2c(OC)cccc2OC)n1 [Example 641.0, (2S,3R)-N-(4-(2,6-dimethoxyphenyl)-5-(6-(methylamino)pyridin-2-yl)-4H-1,2,4-triazol-3-yl)-3-(5-fluoropyrimidin-2-yl)butane-2-sulfonamide]	0.14 nM
COc1cccc(OC)c1-n1c(NS(=O)(=O)C[C@H](O)c2ccc(Cl)cc2S(C)(=O)=O)nnc1-c1cncc(C)c1 (single isomer, unassigned) [Example 458.0, (2R)-2-(4-chloro-2-(methylsulfonyl)phenyl)-N-(4-(2,6-dimethoxyphenyl)-5-(5-methyl-3-pyridinyl)-4H-1,2,4-triazol-3-yl)-2-hydroxyethanesulfonamide or (2S)-2-(4-chloro-2-(methylsulfonyl)phenyl)-N-(4-(2,6-dimethoxyphenyl)-5-(5-methyl-3-pyridinyl)-4H-1,2,4-triazol-3-yl)-2-hydroxyethanesulfonamide]	0.16 nM
Cc1cnc([C@@H](C)[C@H](C)S(=O)(=O)Nc2nnc(-c3cccnc3)n2-c2c(F)cccc2F)nc1 [Example 793.0, (2S,3R)-N-(4-(2,6-difluorophenyl)-5-(3-pyridinyl)-4H-1,2,4-triazol-3-yl)-3-(5-methyl-2-pyrimidinyl)-2-butanesulfonamide]	15 nM
COc1cccc(OC)c1-n1c(NS(=O)(=O)CCN2C(=O)N(C)CC[C@H]2C)nnc1-c1cncc(C)c1 [Example 460.0, N-(4-(2,6-dimethoxyphenyl)-5-(5-methyl-3-pyridinyl)-4H-1,2,4-triazol-3-yl)-2-((6R)-3,6-dimethyl-2-oxotetrahydro-1(2H)-pyrimidinyl)ethanesulfonamide]	9.7 nM
Cc1cnc([C@@H](C)[C@H](C)S(=O)(=O)Nc2nnc(-c3cccc(C)n3)n2-c2c(F)cccc2F)cn1 [Example 790.0, (2S,3R)-N-(4-(2,6-difluorophenyl)-5-(6-methyl-2-pyridinyl)-4H-1,2,4-triazol-3-yl)-3-(5-methyl-2-pyrazinyl)-2-butanesulfonamide]	20 nM
COc1cccc(OC)c1-n1c(NS(=O)(=O)[C@@H](C)[C@H](C)c2ncc(C)cn2)nnc1-c1ccccn1 [Example 775.0, (2S,3R)-N-(4-(2,6-dimethoxyphenyl)-5-(2-pyridinyl)-4H-1,2,4-triazol-3-yl)-3-(5-methyl-2-pyrimidinyl)-2-butanesulfonamide]	2.1 nM
COc1cccc(-c2nnc(NS(=O)(=O)[C@@H](C)[C@H](C)c3ncc(C)cn3)n2-c2c(F)cccc2F)n1 [Example 784.0, (2S,3R)-N-(4-(2,6-difluorophenyl)-5-(6-methoxy-2-pyridinyl)-4H-1,2,4-triazol-3-yl)-3-(5-methyl-2-pyrimidinyl)-2-butanesulfonamide]	0.4 nM
COc1cccc(OC)c1-n1c(NS(=O)(=O)[C@H](C)[C@@H](O)c2cnc(C)cn2)nnc1-c1cncc(C)c1 (single isomer, unassigned) [Example 568.0, (1S,2R)—N-(4-(2,6-dimethoxyphenyl)-5-(5-methyl-3-pyridinyl)-4H-1,2,4-triazol-3-yl)-1-hydroxy-1-(5-methyl-2-pyrazinyl)-2-propanesulfonamide or (1R,2S)—N-(4-(2,6-dimethoxyphenyl)-5-(5-methyl-3-pyridinyl)-4H-1,2,4-triazol-3-yl)-1-hydroxy-1-(5-methyl-2-pyrazinyl)-2-propanesulfonamide]	7.1 nM
